We go through two molecules from patent US20230192644A1, “PIPERIDINE-2,6-DIONES AS SMALL MOLECULE DEGRADERS OF HELIOS AND METHODS OF USE” (DANA-FARBER CANCER INSTITUTE, INC., priority 2020, published 2023).

Structures are written as SMILES. Read-outs that look alike come from different tables or passages of the source.

What all share (format): cell-based
Assay [1] deals with T1, IKZF2 (Homo sapiens, UniProt Q96SW2+Q9UKS7).
T1 construct: knocked into the endogenous IKZF2 or IKZF1 locus of Molt4 cells; endogenous in cells; host or cells: Molt4 (CRISPR/Cas9 HiBit knock-in)
The assay can be described thus: HiBit-IKZF2 degradation assay in Molt4 cells. How it is done:
(§1) The HiBit tag was knocked into the endogenous IKZF2 or IKZF1 locus of Molt4 cells to generate a HiBit-IKZF2 or HiBit-IKZF1 fusion proteins via CRISPR/Cas9 gene editing. Cells were then treated with a 12 point concentration curve of the indicated compounds, and luminescence (corresponding to Helios abundance) was detected after 6 hours using the Nano-Glo® HiBit Lytic Detection system (Promega™). The concentration necessary to achieve 50% degradation (DC50) was calculated using Prism (GraphPad).

Assay [2] concerns the target T2, Helios (Homo sapiens, UniProt Q96SW2+Q9UKS7).
T2 construct: Immunoblots for Ikaros, Helios, and Actin from wildtype Jurkat cells; endogenous in cells; host or cells: wild-type Jurkat cells
In words: Degradation in Jurkat cells (immunoblot). The conditions noted are these: 4 hours, indicated concentrations. The protocol:
Cells were lysed in M-PER® buffer (Thermo Scientific) containing protease/phosphatase inhibitor cocktail (Roche). Protein concentration was measured using a BCA assay (Pierce™). Equivalent amounts of each sample were loaded on 4-12% Bis-Tris gels (Invitrogen™), transferred to nitrocellulose membranes, and immunoblotted with the indicated antibodies. IRDye®800-labeled goat anti-rabbit IgG and IRDye®680-labeled goat anti-mouse IgG (LI-COR®) secondary antibodies were purchased from LI-COR®, and membranes were detected on an Odyssey® detection system (LI-COR® Biosciences).
Immunoblots for Ikaros, Helios, and Actin from wildtype Jurkat cells treated with compound 36 or 65 for 4 hours at the indicated concentrations were generated (FIG. 1).
For orientation: A western blot detects proteins with antibodies after separation by electrophoresis.

Assay [3] has as its target T3, IKZF1 (Homo sapiens, UniProt Q13422+Q96SW2).
T3 construct: knocked into the endogenous IKZF2 or IKZF1 locus of Molt4 cells; endogenous in cells; host or cells: Molt4 (CRISPR/Cas9 HiBit knock-in)
The assay can be described thus: HiBit-IKZF1 degradation assay in Molt4 cells. The protocol: as §1
A general note: With HiBiT, luminescence reflects the tagged protein that the partner subunit can reach.

Assay [4] concerns IKZF2. The assay can be described thus: GFP-IKZF2 cellular degradation assay (eGFP fusion/mCherry reporter, Flip-In 293 cells). Conditions: Flip-In 293 cells stably expressing IKZF2 GFP fusion with mCherry reporter, 5 h. The protocol: IKZF1A and IKZF2A were subcloned into mammalian pcDNA5/FRT Vector (Ampicillin and Hygromycin B resistant) modified to contain MCS-eGFP-P2A-mCherry. Stable cell lines expressing eGFP-protein fusion and mCherry reporter were generated using Flip-In 293 system. Plasmid (0.3 μg) and pOG44 (4.7 μg) DNA were preincubated in 100 μL of Opti-MEM™ I (Gibco™, Life Technologies™) media containing 0.05 mg/mL Lipofectamine™ 2000 (Invitrogen™) for 20 min and added to Flip-In 293 cells containing 1.9 mL of DMEM media (Gibco™, Life Technologies™) per well in a 6-well plate format (Falcon, 353046). Cells were propagated for 48 h and were then transferred into a 10 cm^2 plate (Corning, 430165) in DMEM media containing 50 μg/mL of Hygromycin B (REF 10687010, Invitrogen™) as a selection marker. Following 2-3 passage cycle, FACS (FACSAria™ II, BD) was used to enrich for cells expressing eGFP and mCherry.
(§2) Cells stably expressing the IKZF1A, or IKZF2A GFP fusions with mCherry reporter were seeded at 30-50% confluency in 384-well plates with 50 μL FluoroBrite™ DMEM media (Thermo Fisher Scientific™ A18967) containing 10% FBS per well a day before compound treatment. Compound titrations were dispensed using a D300e Digital Dispenser (HP), normalized to 0.5% DMSO, and incubated with cells for 5 hours.
(§3) The assay plate was imaged immediately using an Acumen High Content Imager (TTP Labtech) with 488 nm and 561 nm lasers in […] per well format. The resulting images were analyzed using CellProfiler (Carpenter et al., Genome Biol. 2006, 7:R100). A series of image analysis steps (‘image analysis pipeline’) was constructed. First, the red and green channels were aligned and cropped to target the middle of each well (to avoid analysis of heavily clumped cells at the edges), and a background illumination function was calculated for both red and green channels of each well individually and subtracted to correct for illumination variations across the 384-well plate from various sources of error. An additional step was then applied to the green channel to suppress the analysis of large auto fluorescent artifacts and enhance the analysis of cell specific fluorescence by way of selecting for objects under a given size, 30 A.U., and with a given shape, speckles. mCherry-positive cells were then identified in the red channel filtering for objects between 8-60 pixels in diameter and using intensity to distinguish between clumped objects. The green channel was then segmented into GFP positive and negative areas and objects were labeled as GFP positive if at least 40% of it overlapped with a GFP positive area. The fraction of GFP-positive cells/mCherry-positive cells in each well was then calculated, and the green and red images were rescaled for visualization. The concentrations that lead to half degradation at 5 h (DC50, 5h) were calculated using the nonlinear fit variable slope model (GraphPad Software).

In assay [5] the target is T4, IKZF1 (Homo sapiens, UniProt Q13422).
T4 construct: expressed in transfected cells
In words: GFP-IKZF1 cellular degradation assay (eGFP fusion/mCherry reporter, Flip-In 293 cells). The protocol: IKZF1A and IKZF2A were subcloned into mammalian pcDNA5/FRT Vector (Ampicillin and Hygromycin B resistant) modified to contain MCS-eGFP-P2A-mCherry. […] Following 2-3 passage cycle, FACS (FACSAria™ II, BD) was used to enrich for cells expressing eGFP and mCherry.
as §2
as §3, with “The resulting images were analyzed using CellProfiler (Carpenter et al., Genome Biol. 2006, 7:R100).” left out

Broadly, the DC50 is the midpoint of the concentration-degradation curve.

T1 sequence (Q9UKS7 whole entry): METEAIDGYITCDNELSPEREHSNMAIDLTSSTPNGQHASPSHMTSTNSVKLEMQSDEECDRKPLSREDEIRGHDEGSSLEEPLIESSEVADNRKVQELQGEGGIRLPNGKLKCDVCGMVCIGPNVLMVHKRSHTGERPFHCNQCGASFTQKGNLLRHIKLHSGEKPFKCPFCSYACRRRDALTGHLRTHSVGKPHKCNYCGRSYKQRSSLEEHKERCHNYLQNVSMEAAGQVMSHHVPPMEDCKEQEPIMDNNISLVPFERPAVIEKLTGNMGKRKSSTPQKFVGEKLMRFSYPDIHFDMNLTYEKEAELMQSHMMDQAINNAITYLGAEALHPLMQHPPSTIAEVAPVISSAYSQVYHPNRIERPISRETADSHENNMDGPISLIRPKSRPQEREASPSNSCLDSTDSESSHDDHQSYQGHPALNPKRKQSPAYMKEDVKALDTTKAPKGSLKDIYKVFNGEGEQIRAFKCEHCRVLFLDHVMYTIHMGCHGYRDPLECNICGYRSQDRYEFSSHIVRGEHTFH
T1 sequence (Q96SW2 whole entry): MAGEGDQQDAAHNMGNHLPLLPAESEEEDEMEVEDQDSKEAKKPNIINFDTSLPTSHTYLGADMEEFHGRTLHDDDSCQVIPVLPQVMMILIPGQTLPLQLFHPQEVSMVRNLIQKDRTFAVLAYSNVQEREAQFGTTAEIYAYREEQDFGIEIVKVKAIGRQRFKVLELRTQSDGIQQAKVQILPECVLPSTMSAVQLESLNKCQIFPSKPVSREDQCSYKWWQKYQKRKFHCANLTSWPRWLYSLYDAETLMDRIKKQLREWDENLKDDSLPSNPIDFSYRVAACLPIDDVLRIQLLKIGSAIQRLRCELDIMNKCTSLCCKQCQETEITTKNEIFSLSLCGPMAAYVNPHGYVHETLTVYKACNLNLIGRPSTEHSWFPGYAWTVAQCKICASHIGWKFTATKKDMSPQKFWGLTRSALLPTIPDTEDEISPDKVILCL
T1 sequence (Q16531 whole entry partner): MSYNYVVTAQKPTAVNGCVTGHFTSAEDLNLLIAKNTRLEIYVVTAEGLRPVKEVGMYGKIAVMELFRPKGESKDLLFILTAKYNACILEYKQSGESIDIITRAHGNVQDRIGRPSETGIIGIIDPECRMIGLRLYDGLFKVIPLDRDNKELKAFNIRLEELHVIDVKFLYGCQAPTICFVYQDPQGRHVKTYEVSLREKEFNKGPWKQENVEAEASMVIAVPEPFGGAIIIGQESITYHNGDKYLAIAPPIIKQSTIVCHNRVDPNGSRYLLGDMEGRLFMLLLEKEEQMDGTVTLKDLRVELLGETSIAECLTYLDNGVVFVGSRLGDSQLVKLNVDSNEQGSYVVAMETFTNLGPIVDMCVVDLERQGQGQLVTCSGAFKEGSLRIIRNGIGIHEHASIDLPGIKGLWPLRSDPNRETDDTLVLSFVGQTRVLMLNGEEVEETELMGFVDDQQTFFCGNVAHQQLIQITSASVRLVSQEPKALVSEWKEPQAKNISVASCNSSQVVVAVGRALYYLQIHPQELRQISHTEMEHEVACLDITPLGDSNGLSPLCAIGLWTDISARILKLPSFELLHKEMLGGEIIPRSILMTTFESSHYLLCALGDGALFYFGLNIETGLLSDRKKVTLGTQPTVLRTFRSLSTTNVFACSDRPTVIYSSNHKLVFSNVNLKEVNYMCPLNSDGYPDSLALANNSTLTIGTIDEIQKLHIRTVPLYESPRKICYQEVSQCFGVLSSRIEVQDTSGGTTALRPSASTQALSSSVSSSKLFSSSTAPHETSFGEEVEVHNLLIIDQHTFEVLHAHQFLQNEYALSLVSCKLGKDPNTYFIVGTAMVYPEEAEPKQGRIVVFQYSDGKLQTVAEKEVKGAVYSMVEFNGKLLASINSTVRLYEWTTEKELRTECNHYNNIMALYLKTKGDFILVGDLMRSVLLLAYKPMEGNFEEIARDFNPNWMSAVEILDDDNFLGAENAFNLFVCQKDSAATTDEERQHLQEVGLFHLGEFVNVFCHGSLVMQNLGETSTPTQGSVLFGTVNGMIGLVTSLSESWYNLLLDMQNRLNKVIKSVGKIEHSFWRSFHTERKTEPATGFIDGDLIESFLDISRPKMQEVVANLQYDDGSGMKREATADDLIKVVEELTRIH
T2 sequence (Q9UKS7 whole entry): as the sequence (Q9UKS7 whole entry) above
T2 sequence (Q96SW2 whole entry): as the sequence (Q96SW2 whole entry) above
T2 sequence (Q16531 whole entry partner): as the sequence (Q16531 whole entry partner) above
T3 sequence (Q13422 whole entry): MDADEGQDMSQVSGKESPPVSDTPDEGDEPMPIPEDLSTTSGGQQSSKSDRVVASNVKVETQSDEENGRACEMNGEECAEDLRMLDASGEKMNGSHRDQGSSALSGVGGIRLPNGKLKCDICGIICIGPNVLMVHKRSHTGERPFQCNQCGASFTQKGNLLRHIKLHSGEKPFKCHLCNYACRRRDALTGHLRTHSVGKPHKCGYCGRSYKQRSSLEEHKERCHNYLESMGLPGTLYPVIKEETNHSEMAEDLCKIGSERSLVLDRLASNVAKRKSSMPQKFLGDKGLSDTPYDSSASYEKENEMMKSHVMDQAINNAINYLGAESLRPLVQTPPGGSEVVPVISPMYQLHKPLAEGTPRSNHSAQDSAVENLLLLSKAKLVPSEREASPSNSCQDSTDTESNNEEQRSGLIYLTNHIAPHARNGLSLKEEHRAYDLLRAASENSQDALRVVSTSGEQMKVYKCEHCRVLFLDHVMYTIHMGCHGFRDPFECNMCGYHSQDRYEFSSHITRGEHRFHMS
T3 sequence (Q96SW2 whole entry): as the sequence (Q96SW2 whole entry) above
T3 sequence (Q16531 whole entry partner): as the sequence (Q16531 whole entry partner) above
T4 sequence (Q13422 83-213 isoform Q13422-7 limits assumed): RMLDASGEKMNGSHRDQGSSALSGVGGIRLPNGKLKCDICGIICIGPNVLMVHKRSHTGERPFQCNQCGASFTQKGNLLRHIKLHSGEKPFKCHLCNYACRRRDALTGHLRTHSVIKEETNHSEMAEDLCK
T4 sequence (Q96SW2 whole entry partner): as the sequence (Q96SW2 whole entry) above
T4 sequence (Q16531 whole entry partner): as the sequence (Q16531 whole entry partner) above

With `CN(C)C(CC(=O)Nc1cccc(C(F)(F)F)c1)c1cccc(NC2=CC(=O)N(C3CCC(=O)NC3=O)C2=O)c1` (stereo not shown) [Compound 36, 3-(dimethylamino)-3-(3-((1-(2,6-dioxopiperidin-3-yl)-2,5-dioxo-2,5-dihydro-1H-pyrrol-3-yl)amino)phenyl)-N-(3-(trifluoromethyl)phenyl)propanamide], the DC50 stood at 2.5 nM in assay [1] (Molt4 cells with endogenous HiBit-IKZF2 knock-in, 6 hours, Nano-Glo HiBit luminescence; read-out: IKZF2 DC50); 15 nM in assay [3] (Molt4 cells with endogenous HiBit-IKZF1 knock-in, 6 hours, Nano-Glo HiBit luminescence; read-out: IKZF1 DC50); 2.3 nM in assay [4]; 5.4 nM in assay [5] (Flip-In 293 cells stably expressing IKZF1 GFP fusion with mCherry reporter, 5 h; read-out: GFP IKZF1 DC50). In addition, the “Helios degradation (immunoblot, FIG. 1)” value in assay [2] was “Helios degradation”.

Regarding `CC(C)(NCCc1cccc(C(F)(F)F)c1)c1cccc(NC2=CC(=O)N(C3CCC(=O)NC3=O)C2=O)c1` (stereo not shown) [Compound 65, 3-(2,5-dioxo-3-((3-(2-((3-(trifluoromethyl)phenethyl)amino)propan-2-yl)phenyl)amino)-2,5-dihydro-1H-pyrrol-1-yl)piperidine-2,6-dione], the DC50 came to 17 nM in assay [1] (read-out: IKZF2 DC50; Molt4 cells with endogenous HiBit-IKZF2 knock-in, 6 hours, Nano-Glo HiBit luminescence); 18 nM in assay [3] (read-out: IKZF1 DC50; Molt4 cells with endogenous HiBit-IKZF1 knock-in, 6 hours, Nano-Glo HiBit luminescence); 3.6 nM in assay [4]; 5.1 nM in assay [5] (read-out: GFP IKZF1 DC50; Flip-In 293 cells stably expressing IKZF1 GFP fusion with mCherry reporter, 5 h). Moreover, the “Helios degradation (immunoblot, FIG. 1)” value in assay [2] is “Helios degradation”.
